Test [1] addresses T1, HPK1 (Homo sapiens, UniProt Q92918).
T1 sequence (Q92918 1-346 limits assumed): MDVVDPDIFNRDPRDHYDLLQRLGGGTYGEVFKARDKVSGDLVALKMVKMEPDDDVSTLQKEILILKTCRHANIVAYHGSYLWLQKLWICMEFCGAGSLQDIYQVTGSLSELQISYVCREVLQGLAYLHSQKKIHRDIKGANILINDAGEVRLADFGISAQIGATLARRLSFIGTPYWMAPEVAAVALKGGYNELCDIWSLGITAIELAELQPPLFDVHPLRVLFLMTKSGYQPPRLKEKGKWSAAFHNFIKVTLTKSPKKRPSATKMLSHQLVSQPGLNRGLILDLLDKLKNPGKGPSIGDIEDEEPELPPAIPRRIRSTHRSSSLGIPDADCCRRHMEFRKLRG
The test is described as follows: HPK1 kinase activity assay (ADP-Glo). The following applies: HPK1 Kinase activity IC50 (nM), 1 nM HPK1, 10 μM ATP, 0.1 μg/μL MBP.
Protocol: Preparation of buffer: 1× reaction buffer (40 mM Tris-HCl, 20 mM MgCl2, 0.01% Brij35, 50 μM DTT, 0.1 mg/ml BSA) was prepared using sterile water, which was prepared and used on the day of the experiment.
(§1) Preparation of 1000× drug stock plate: a 1000× compound stock plate was prepared. […] The compound stock plate was sealed with a sealing film and stored in a −20° C. refrigerator for later use.
Compound preparation and dosing: the 1000× drug stock plate was taken and melted at room temperature in the dark. Then 5× drug intermediate plate was prepared using reaction buffer and mixed well. 2 μL was transferred from the 5× drug intermediate plate into a 384-well plate, and negative control well and positive control well (in which 2 μL reaction buffer containing 0.5% DMSO was added) were set. Each point was repeated twice.
Preparation and incubation of reaction mixture: HPK1 protein was diluted to a 2.5× working solution with reaction buffer. 4 μL 2.5×HPK1 protein was added to each well containing test compound and positive control well, and 4 μL of reaction buffer without HPK1 protein was added to the negative control well. The obtained mixture was centrifuged at 1000 rpm for 1 min and then incubated in a 20° C. incubator for 15 min. A 2.5× mixed working solution of MBP protein and ATP was prepared with reaction buffer at concentrations of 0.5 μg/μL and 50 PM, respectively. 4 μL of the mixed working solution of MBP and ATP was added to each well, centrifuged at 1000 rpm for 1 min, and then incubated in a 20° C. incubator for 90 min.
ADP-Glo detection and reading plate: 10 μl ADP-Glo was added to each well of the test plate. The resulting mixture was centrifuged at 1000 rpm for 1 min and incubated in a 20° C. incubator for 60 min. Then 10 μL of the final incubation solution was transferred from the test plate to a new 384-well plate. 10 μL of kinase detection reagent was added to each well, centrifuged at 400 g for 1 min, and incubated in a 20° C. incubator for 60 min. Chemiluminescent signals were read by a microplate reader.

Test [2] deals with HPK1 (Homo sapiens, UniProt Q92918). The test can be described thus: SLP76 phosphorylation assay (intracellular HPK1 inhibitory activity, p-SLP76 Ser376 sandwich ELISA). To be noted: p-SLP76 IC50(nM), Jurkat, Clone E6-1 cells; 1 h compound pre-incubation, anti-CD3 beads stimulation 20 min; SLP76 phosphorylation at S376. Background: ELISA stands for enzyme-linked immunosorbent assay.
Target sequence in this assay (Q92918 whole entry): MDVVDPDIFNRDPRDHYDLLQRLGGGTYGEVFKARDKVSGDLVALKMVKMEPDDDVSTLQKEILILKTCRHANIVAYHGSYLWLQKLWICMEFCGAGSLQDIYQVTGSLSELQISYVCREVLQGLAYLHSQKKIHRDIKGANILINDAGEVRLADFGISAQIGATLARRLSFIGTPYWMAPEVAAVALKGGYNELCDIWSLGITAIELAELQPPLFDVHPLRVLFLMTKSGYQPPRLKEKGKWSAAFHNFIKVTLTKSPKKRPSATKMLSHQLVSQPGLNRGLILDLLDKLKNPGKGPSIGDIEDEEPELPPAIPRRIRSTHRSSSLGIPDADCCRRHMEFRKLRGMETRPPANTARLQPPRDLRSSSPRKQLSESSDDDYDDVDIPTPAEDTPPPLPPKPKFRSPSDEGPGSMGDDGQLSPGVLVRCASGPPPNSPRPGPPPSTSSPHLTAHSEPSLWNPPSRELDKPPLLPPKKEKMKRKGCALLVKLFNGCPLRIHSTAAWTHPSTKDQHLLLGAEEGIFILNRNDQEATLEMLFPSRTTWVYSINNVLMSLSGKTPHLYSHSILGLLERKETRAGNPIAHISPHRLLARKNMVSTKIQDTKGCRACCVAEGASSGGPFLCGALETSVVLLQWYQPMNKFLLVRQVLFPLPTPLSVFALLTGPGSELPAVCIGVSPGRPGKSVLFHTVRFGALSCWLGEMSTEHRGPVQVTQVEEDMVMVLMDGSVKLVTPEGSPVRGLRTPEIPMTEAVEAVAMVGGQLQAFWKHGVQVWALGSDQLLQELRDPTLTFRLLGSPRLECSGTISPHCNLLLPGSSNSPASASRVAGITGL
Protocol: Intracellular HPK1 inhibitory activity was tested by the detection of SLP76 phosphorylation at S376.
as §1
Preparation of Beads wash buffer: 0.1 mL FBS and 0.4 mL 0.5 M EDTA (with a final concentration of 2 mM) were added to 100 mL PBS and stored in a 4° C. refrigerator for later use.
100× Protease Inhibitor Cocktail in 1/20 total volume was added and stored on wet ice for later use. The buffer was ready to use.
Cell inoculation and dosing: the 1000× drug stock plate was taken and melted at room temperature in the dark. […] Jurkat cells in the logarithmic growth phase were selected and collected. […] The cells were inoculated into a 96-well plate (the volume was 90 μL per well), and a blank control well (without cells inoculation, and in which 110 μL of medium was added) was set. 10 μL of a drug-containing culture medium (10×) was transferred from the 10× drug intermediate plate into the 96-well cell plate (with a final concentration of 0.1% DMSO), and set a DMSO control group (in which 0.1% DMSO was added to the treated cells), a stimulated control group (in which 10 μL of culture medium was added to treat cells) and an unstimulated group (in which 10 μL of culture medium was added to treat cells). The wells were duplicated, gently patted, mixed, and then placed into a 5% CO2 incubator at 37° C. for 1 h.
Anti-CD3 beads stimulation: Dynabeads anti-human CD3 was taken, shaken, and mixed for 60 s. The required volume of beads was pipetted, and an equal volume or at least 1 mL of washing solution was added to wash once. Fresh complete medium was then added to resuspend and adjust the density of the beads to 4×10^7/mL, and the beads were placed on ice for later use. At the end of drug pre-incubation, the cell culture plate was taken out. 10 μL Dynabeads anti-human CD3 was added to each well to treat the cells, and 10 μL the culture medium was added to the unstimulated group. The cell culture plate was shaken to mix well at 2500 rpm for 10 s, and then placed into a 5% CO2 incubator at 37° C. and continued to culture for 20 min.
Detection of p-SLP76 protein level. PathScan Phospho-SLP-76 (Ser376) Sandwich ELISA Kit was applied to detect p-SLP76 protein level. At the end of the Anti-CD3 beads stimulation, the cell culture plate was removed from the incubator. […] After lysis, the cell culture plate was centrifuged at 4° C., 400×g for 5 min. 25 μL of sample and 75 μL of sample diluent were added to each well, and the plate was placed in a 5% CO2 incubator at 37° C. for 2 h. The subsequent detection steps were carried out following the kit instructions, and the absorbance (OD value) of each well was read at 450 nm by a microplate reader.

Molecules are shown by their SMILES. Structures can show the parent of a compound that is named as a salt.

`CCN(CC)Cc1cc(-c2cnc3[nH]cc(C)c3c2)cc2c1COCC2` [Compound Z110, N-ethyl-N-((6-(3-methyl-1H-pyrrolo[2,3-b]pyridin-5-yl)isochroman-8-yl)methyl)ethanamine]: the IC50 on HPK1 [1] came out at 26.9 nM; against HPK1 [2] it was 2840 nM.
`Cc1c[nH]c2ncc(-c3cc(C4CCCN4)c4cnccc4c3)cc12` (stereo not shown) [Compound Z3, 6-(3-methyl-1H-pyrrolo[2,3-b]pyridin-5-yl)-8-(pyrrolidin-2-yl)isoquinoline formate]: the IC50 against HPK1 [1] worked out at 4.34 nM; against HPK1 [2], 853 nM.
For the compound `Cc1nn(C)cc1C(=O)N1CCc2cc(-c3cnc4[nH]cc(C)c4c3)cc([C@@H]3CCCN3)c2C1` [Compound Z282, (S)-(1,3-dimethyl-1H-pyrazol-4-yl)(6-(3-methyl-1H-pyrrolo[2,3-b]pyridin-5-yl)-8-(pyrrolidin-2-yl)-3,4-dihydroisoquinolin-2(1H)-yl)methanone], the values for the half-inhibitory concentration (IC50) against HPK1 [1] and on HPK1 [2] were 0.38 nM and 471 nM, respectively.
For `CCNC(=O)N1CCc2cc(-c3cnc4[nH]cc(C)c4c3)cc([C@@H]3CCCN3)c2C1` [Compound Z217, (S)—N-ethyl-6-(3-methyl-1H-pyrrolo[2,3-b]pyridin-5-yl)-8-(pyrrolidin-2-yl)-3,4-dihydroisoquinoline-2(1H)-carboxamide], the 50% inhibitory concentration (IC50) came out at 0.44 nM at HPK1 [1] and 133 nM on HPK1 [2].
`CC(=O)N1CCc2cc(-c3cnc4[nH]cc(C)c4c3)cc(C3CCCN3)c2C1` (stereo not shown) [Compound Z98, 1-(6-(3-methyl-1H-pyrrolo[2,3-b]pyridin-5-yl)-8(pyrrolidin-2-yl)-3,4-dihydroisoquinolin-2(1H)-yl)ethanone]: the concentration for half-maximal inhibition (IC50) amounted to 0.9 nM against HPK1 [1] and 237 nM at HPK1 [2].
Taken in the same sequence, the figures for `Cc1c[nH]c2ncc(-c3cc([C@@H]4CCCN4)c4cnccc4c3)cc12` (single isomer, unassigned) [Compound Z3-1] were 231 nM and more than 10000 nM.
Taken in the same sequence, the figures for `Cc1cc(N2CCc3cc(-c4cnc5[nH]cc(C)c5c4)cc([C@@H]4CCCN4)c3C2)cc(C)n1` [Compound Z343, (S)-2-(2,6-dimethylpyridin-4-yl)-6-(3-methyl-1H-pyrrolo[2,3-b]pyridin-5-yl)-8-(pyrrolidin-2-yl)-1,2,3,4-tetrahydroisoquinoline] were 0.4 nM and 177 nM.
For `CCN1Cc2c(cc(-c3cnc4[nH]cc(C)c4c3)cc2[C@@H]2CCCN2)CC1=O` [Compound Z138, (S)-2-ethyl-6-(3-methyl-1H-pyrrolo[2,3-b]pyridin-5-yl)-8-(pyrrolidin-2-yl)-1,4-dihydroisoquinolin-3(2H)-one], in that order: 0.81 nM and 132 nM.
`Cc1c[nH]c2ncc(-c3cc4c(c([C@@H]5CCCN5)c3)CCN(C(=O)CC3CCOCC3)C4)cc12` [Compound Z311, 1-[7-(3-methyl-1H-pyrrolo[2,3-b]pyridin-5-yl)-5-[(2S)-tetrahydro-1H-pyrrol-2-yl]-1,2,3,4-tetrahydroisoquinolin-2-yl]-2-(3,4,5,6-tetrahydro-2H-pyran-4-yl)ethan-1-one]: the half-maximal inhibitory concentration (IC50) against HPK1 [1] came to 0.56 nM; against HPK1 [2] it was 146 nM.
Consider `Cc1cc(C(=O)N2CCc3c(cc(-c4cnc5[nH]cc(C)c5c4)cc3[C@@H]3CCCN3)C2)cc(C)n1` [Compound Z279, (S)-(2,6-dimethylpyridin-4-yl)(7-(3-methyl-1H-pyrrolo[2,3-b]pyridin-5-yl)-5-(pyrrolidin-2-yl)-3,4-dihydroisoquinolin-2(1H)-yl)methanone], for which the results for the IC50 against HPK1 [1] and on HPK1 [2] were 0.44 nM and 162 nM, respectively.
As to `Cc1c[nH]c2ncc(-c3cc4c(c([C@@H]5CCCN5)c3)COCC4)nc12` [Compound Z106, (S)-7-methyl-2-(8-(pyrrolidin-2-yl)isochroman-6-yl)-5H-pyrrolo[2,3-b]pyrazine], the concentration for half-maximal inhibition (IC50) was determined as 0.53 nM against HPK1 [1] and 133 nM on HPK1 [2].
As to `CC(C)c1c[nH]c2ncc(-c3cc(C4CCCN4)c4cnccc4c3)cc12` (stereo not shown) [Compound Z95, 6-(3-isopropyl-1H-pyrrolo[2,3-b]pyridin-5-yl)-8-(pyrrolidin-2-yl)isoquinoline], the 50% inhibitory concentration (IC50) is 3.11 nM against HPK1 [1] and 1080 nM at HPK1 [2].
As to `COCC(=O)N1CCc2cc(-c3cnc4[nH]cc(C(C)C)c4c3)cc([C@@H]3COCCN3)c2C1` [Compound Z424-1], the IC50 at HPK1 [1] worked out at 0.31 nM; against HPK1 [2], 129 nM.
On to `Cc1[nH]c2ncc(-c3cc4c(c([C@@H]5CCCN5)c3)CN(C(=O)[C@](C)(O)C(F)(F)F)CC4)cc2c1C` [Compound Z414, (S)-1-(6-(2,3-dimethyl-1H-pyrrolo[2,3-b]pyridin-5-yl)-8-((S)-pyrrolidin-2-yl)-3,4-dihydroisoquinolin-2(1H)-yl)-3,3,3-trifluoro-2-hydroxy-2-methylpropan-1-one], for which the values for the IC50 at HPK1 [1] and on HPK1 [2] were 20.6 nM and 2610 nM, respectively.
`Cc1ncc(N2CCc3c(cc(-c4cnc5[nH]cc(C)c5c4)cc3[C@@H]3CCCN3)C2)s1` [Compound Z38-1, (S)-7-(3-methyl-1H-pyrrolo[2,3-b]pyridin-5-yl)-2-(2-methylthiazol-5-yl)-5-(pyrrolidin-2-yl)-1,2,3,4-tetrahydroisoquinoline]: the IC50 on HPK1 [1] was determined as 2.97 nM; at HPK1 [2], 719 nM.
Regarding `Cc1cc(C(=O)N2CCc3cc(-c4cnc5[nH]cc(C)c5c4)cc([C@@H]4CCCN4)c3C2)ccn1` [Compound Z213, (S)-(6-(3-methyl-1H-pyrrolo[2,3-b]pyridin-5-yl)-8-(pyrrolidin-2-yl)-3,4-dihydroisoquinolin-2(1H)-yl) (2-methylpyridin-4-yl)methanone], the IC50 against HPK1 [1] amounted to 0.64 nM; at HPK1 [2], 318 nM.
Consider `Cc1c[nH]c2ncc(-c3cc4c(c([C@@H]5CCCN5)c3)CCN(C(=O)[C@](C)(O)C(F)(F)F)C4)cc12` [Compound Z285-1, (S)-3,3,3-trifluoro-2-hydroxy-2-methyl-1-(7-(3-methyl-1H-pyrrolo[2,3-b]pyridin-5-yl)-5-((S)-pyrrolidin-2-yl)-3,4-dihydroisoquinolin-2(1H)-yl)propan-1-one], for which the half-inhibitory concentration (IC50) turned out to be 0.87 nM against HPK1 [1] and 239 nM at HPK1 [2].
For `Cc1ccncc1C#Cc1c[nH]c2ncc(-c3cc4c(c([C@@H]5CCCN5)c3)COCC4)cc12` [Compound Z237, (S)-3-((4-methylpyridin-3-yl)ethynyl)-5-(8-(pyrrolidin-2-yl)isochroman-6-yl)-1H-pyrrolo[2,3-b]pyridine], in that order: 0.71 nM and 100 nM.
On to `Cc1cc(C(=O)N2Cc3cc(-c4cnc5[nH]cc(C)c5c4)cc([C@@H]4CCCN4)c3C2)cc(C)n1` [Compound Z262, (S)-(2,6-dimethylpyridin-4-yl)(6-(3-methyl-1H-pyrrolo[2,3-b]pyridin-5-yl)-4-(pyrrolidin-2-yl)isoindolin-2-yl)methanone hydrochloride], for which the IC50 at HPK1 [1] was 1.72 nM; on HPK1 [2], 627 nM.
As for `Cc1c[nH]c2ncc(-c3cc4c(c([C@@H]5CCCN5)c3)CCN(S(C)(=O)=O)C4)cc12` [Compound Z88-1, (S)-7-(3-methyl-1H-pyrrolo[2,3-b]pyridin-5-yl)-2-(methylsulfonyl)-5-(pyrrolidin-2-yl)-1,2,3,4-tetrahydroisoquinoline], the IC50 worked out at 0.38 nM on HPK1 [1] and 91.3 nM at HPK1 [2].
As for `Cc1c[nH]c2ncc(-c3cc4c(c([C@@H]5CCCN5)c3)CN(C(=O)[C@@H]3CCOC3)CC4)cc12` [Compound Z219-1, (S)-(6-(3-methyl-1H-pyrrolo[2,3-b]pyridin-5-yl)-8-(pyrrolidin-2-yl)-3,4-dihydroisoquinolin-2(1H)-yl) ((R)-tetrahydrofuran-3-yl)methanone], the IC50 was 0.42 nM against HPK1 [1] and 174 nM on HPK1 [2].
For `Cc1c[nH]c2ncc(-c3cc4c(c([C@@H]5CCCN5)c3)CN(CC3CCOCC3)CC4)cc12` [Compound Z442, (S)-6-(3-methyl-1H-pyrrolo[2,3-b]pyridin-5-yl)-8-(pyrrolidin-2-yl)-2-((tetrahydro-2H-pyran-4-yl)methyl)-1,2,3,4-tetrahydroisoquinoline], in that order: 1.5 nM and 412 nM.
On to `FC(F)(F)c1c[nH]c2ncc(-c3cc(C4CCCN4)c4cnccc4c3)cc12` (stereo not shown) [Compound Z96, 6-(3-(trifluoromethyl)-1H-pyrrolo[2,3-b]pyridin-5-yl)-8-(pyrrolidin-2-yl)isoquinoline], for which the half-inhibitory concentration (IC50) against HPK1 [1] is 4.13 nM; at HPK1 [2] it was 1000 nM.
In the case of `Cc1c[nH]c2ncc(-c3cc4c(c([C@@H]5CCCN5)c3)CN(C(=O)C3CCCCC3)CC4)cc12` [Compound Z125], the values for the IC50 against HPK1 [1] and against HPK1 [2] were 1.43 nM and 301 nM, respectively.
For the compound `Cc1c[nH]c2ncc(-c3cc4c(c([C@@H]5CCCN5)c3)CN(C(=O)N3CCOC[C@@H]3C)CC4)cc12` [Compound Z358-1], the IC50 against HPK1 [1] amounted to 0.23 nM; against HPK1 [2], 67.4 nM.
With `Cc1ccc(C(=O)N2CCc3cc(-c4cnc5[nH]cc(C)c5c4)cc([C@@H]4CCCN4)c3C2)cn1` [Compound Z441, (S)-(6-(3-methyl-1H-pyrrolo[2,3-b]pyridin-5-yl)-8-(pyrrolidin-2-yl)-3,4-dihydroisoquinolin-2(1H)-yl) (6-methylpyridin-3-yl)methanone], the concentration for half-maximal inhibition (IC50) against HPK1 [1] is 0.52 nM; against HPK1 [2], 197 nM.

In general, IC50 refers to the point on the concentration scale where inhibition reaches its midpoint. The low end stands for inhibition by little substance, the high end for a need for much substance.

For the origin of these results see patent publication US20240182465A1 (GENFLEET THERAPEUTICS (SHANGHAI) INC., priority 2021, published 2024).
